Measured values from ChEMBL document CHEMBL3885861, “Open TG-GATES”.

Species: Rattus norvegicus
Test: Open TG-GATES - Regimen: Daily Repeat
Assay type: toxicity, organism-based, Sprague-Dawley
Set-up: regimen Daily Repeat, gender Male, age 6 weeks
Details: in vivo, po, 120 mg/kg, route gavage, dose level Middle; for APTT / Bas / Eos / Fbg / Hb / Ht / Lym / MCH / MCHC / MCV / Mono / Neu / PT / Plat / RBC / Ret / WBC: tissue Blood; for KIDNEY_L / KIDNEY_R / KIDNEY_TOTAL: tissue Kidney; for LIVER: tissue Liver; for A/G / ALP / ALT / AST / BUN / CRE / Ca / Cl / DBIL / GLC / IP / K / LDH / Na / PL / RALB / TBIL / TC / TG / TP / gamma-GTP: tissue Plasma

Q: What does the source list for `Cc1cccc(C)c1OCC(C)N` (configuration not stated) [MEXILETINE]?
A: TERMINAL_BW (72 h, time 3 day): 236.3 g; APTT (72 h, time 3 day): 21.8 s; Bas (72 h, time 3 day): 0%; Eos (72 h, time 3 day): 0.8%; Fbg (72 h, time 3 day): 325.2 mg/dL; Hb (72 h, time 3 day): 12.9 g/dL; Ht (72 h, time 3 day): 40.1%; Lym (72 h, time 3 day): 74%; MCH (72 h, time 3 day): 19.7 pg; MCHC (72 h, time 3 day): 32.3%; MCV (72 h, time 3 day): 61.1 fL; Mono (72 h, time 3 day): 2.6%; Neu (72 h, time 3 day): 21.6%; PT (72 h, time 3 day): 15.3 s; Plat (72 h, time 3 day): 115.5 x10_4/uL; RBC (72 h, time 3 day): 656.6 x10_4/ul; Ret (72 h, time 3 day): 6.1%; WBC (72 h, time 3 day): 96.8 x10_2/uL; KIDNEY_L (72 h, time 3 day): 1 g; KIDNEY_R (72 h, time 3 day): 1 g; KIDNEY_TOTAL (72 h, time 3 day): 2 g; LIVER (72 h, time 3 day): 11.5 g; A/G (72 h, time 3 day): 1.3; ALP (72 h, time 3 day): 1686.2 IU/L; ALT (72 h, time 3 day): 48.6 IU/L; AST (72 h, time 3 day): 73.4 IU/L; BUN (72 h, time 3 day): 16.6 mg/dL; CRE (72 h, time 3 day): 0.1 mg/dL; Ca (72 h, time 3 day): 10.8 mg/dL; Cl (72 h, time 3 day): 106.2 meq/L; DBIL (72 h, time 3 day): 0 mg/dL; GLC (72 h, time 3 day): 197 mg/dL; IP (72 h, time 3 day): 8 mg/dL; K (72 h, time 3 day): 4.3 meq/L; LDH (72 h, time 3 day): 181.2 IU/L; Na (72 h, time 3 day): 141.6 meq/L; PL (72 h, time 3 day): 168 mg/dL; RALB (72 h, time 3 day): 3.2 g/dL; TBIL (72 h, time 3 day): 0.002 mg/dL; TC (72 h, time 3 day): 91.2 mg/dL; TG (72 h, time 3 day): 150.2 mg/dL; TP (72 h, time 3 day): 5.7 g/dL; gamma-GTP (72 h, time 3 day): 1.8 IU/L; TERMINAL_BW ([…], time 7 day): 275.9 g; TERMINAL_BW ([…], time 14 day): 328.1 g; TERMINAL_BW ([…], time 28 day): 389.9 g; APTT ([…], time 7 day): 22.2 s; Bas ([…], time 7 day): 0%; Eos ([…], time 7 day): 0.8%; Fbg ([…], time 7 day): 321.2 mg/dL; Hb ([…], time 7 day): 13.1 g/dL; Ht ([…], time 7 day): 40.4%; Lym ([…], time 7 day): 77.8%; MCH ([…], time 7 day): 20.5 pg; MCHC ([…], time 7 day): 32.4%; MCV ([…], time 7 day): 63.3 fL; Mono ([…], time 7 day): 2.4%; Neu ([…], time 7 day): 18.4%; PT ([…], time 7 day): 15.6 s; Plat ([…], time 7 day): 105.3 x10_4/uL; RBC ([…], time 7 day): 638 x10_4/ul; Ret ([…], time 7 day): 6.2%; WBC ([…], time 7 day): 107.1 x10_2/uL; APTT ([…], time 14 day): 21.8 s; Bas ([…], time 14 day): 0%; Eos ([…], time 14 day): 0.4%; Fbg ([…], time 14 day): 310.2 mg/dL; Hb ([…], time 14 day): 13.1 g/dL; Ht ([…], time 14 day): 40.6%; Lym ([…], time 14 day): 83.2%; MCH ([…], time 14 day): 20.1 pg; MCHC ([…], time 14 day): 32.2%; MCV ([…], time 14 day): 62.6 fL; Mono ([…], time 14 day): 2%; Neu ([…], time 14 day): 13.6%; PT ([…], time 14 day): 15.9 s; Plat ([…], time 14 day): 113.4 x10_4/uL; RBC ([…], time 14 day): 648.8 x10_4/ul; Ret ([…], time 14 day): 7.3%; WBC ([…], time 14 day): 96 x10_2/uL; APTT ([…], time 28 day): 23.8 s; Bas ([…], time 28 day): 0%; Eos ([…], time 28 day): 1.8%; Fbg ([…], time 28 day): 328.2 mg/dL; Hb ([…], time 28 day): 15.1 g/dL; Ht ([…], time 28 day): 44%; Lym ([…], time 28 day): 74%; MCH ([…], time 28 day): 19.4 pg; MCHC ([…], time 28 day): 34.4%; MCV ([…], time 28 day): 56.6 fL; Mono ([…], time 28 day): 2.4%; Neu ([…], time 28 day): 21.2%; PT ([…], time 28 day): 15.6 s; Plat ([…], time 28 day): 94.2 x10_4/uL; RBC ([…], time 28 day): 777 x10_4/ul; Ret ([…], time 28 day): 3.1%; WBC ([…], time 28 day): 93 x10_2/uL; KIDNEY_L ([…], time 7 day): 1.1 g; KIDNEY_R ([…], time 7 day): 1.1 g; KIDNEY_TOTAL ([…], time 7 day): 2.2 g; KIDNEY_L ([…], time 14 day): 1.3 g; KIDNEY_R ([…], time 14 day): 1.3 g; KIDNEY_TOTAL ([…], time 14 day): 2.6 g; KIDNEY_L ([…], time 28 day): 1.5 g; KIDNEY_R ([…], time 28 day): 1.5 g; KIDNEY_TOTAL ([…], time 28 day): 2.9 g; LIVER ([…], time 7 day): 13.2 g; LIVER ([…], time 14 day): 14.8 g; LIVER ([…], time 28 day): 16.8 g; A/G ([…], time 7 day): 1.2; ALP ([…], time 7 day): 1567.6 IU/L; ALT ([…], time 7 day): 45 IU/L; AST ([…], time 7 day): 69.8 IU/L; BUN ([…], time 7 day): 18.4 mg/dL; CRE ([…], time 7 day): 0.1 mg/dL; Ca ([…], time 7 day): 11 mg/dL; Cl ([…], time 7 day): 104.8 meq/L; DBIL ([…], time 7 day): 0 mg/dL; GLC ([…], time 7 day): 188.6 mg/dL; IP ([…], time 7 day): 7.8 mg/dL; K ([…], time 7 day): 4.2 meq/L; LDH ([…], time 7 day): 145.6 IU/L; Na ([…], time 7 day): 142 meq/L; PL ([…], time 7 day): 163.2 mg/dL; RALB ([…], time 7 day): 3 g/dL; TBIL ([…], time 7 day): 0.004 mg/dL; TC ([…], time 7 day): 81.2 mg/dL; TG ([…], time 7 day): 148 mg/dL; TP ([…], time 7 day): 5.6 g/dL; gamma-GTP ([…], time 7 day): 1.6 IU/L; A/G ([…], time 14 day): 1.1; ALP ([…], time 14 day): 1443.2 IU/L; ALT ([…], time 14 day): 43.2 IU/L; AST ([…], time 14 day): 74.6 IU/L; BUN ([…], time 14 day): 19.4 mg/dL; CRE ([…], time 14 day): 0.2 mg/dL; Ca ([…], time 14 day): 10.5 mg/dL; Cl ([…], time 14 day): 107.2 meq/L; DBIL ([…], time 14 day): 0 mg/dL; GLC ([…], time 14 day): 190.6 mg/dL; IP ([…], time 14 day): 6.5 mg/dL; K ([…], time 14 day): 4.4 meq/L; LDH ([…], time 14 day): 157.8 IU/L; Na ([…], time 14 day): 140.6 meq/L; PL ([…], time 14 day): 160 mg/dL; RALB ([…], time 14 day): 2.9 g/dL; TBIL ([…], time 14 day): 0.002 mg/dL; TC ([…], time 14 day): 80.8 mg/dL; TG ([…], time 14 day): 155.6 mg/dL; TP ([…], time 14 day): 5.7 g/dL; gamma-GTP ([…], time 14 day): 2.2 IU/L; A/G ([…], time 28 day): 1; ALP ([…], time 28 day): 977 IU/L; ALT ([…], time 28 day): 42.4 IU/L; AST ([…], time 28 day): 68.8 IU/L; BUN ([…], time 28 day): 16.2 mg/dL; CRE ([…], time 28 day): 0.2 mg/dL; Ca ([…], time 28 day): 10.4 mg/dL; Cl ([…], time 28 day): 105.6 meq/L; DBIL ([…], time 28 day): 0 mg/dL; GLC ([…], time 28 day): 201.6 mg/dL; IP ([…], time 28 day): 6 mg/dL; K ([…], time 28 day): 3.7 meq/L; LDH ([…], time 28 day): 158.2 IU/L; Na ([…], time 28 day): 142.8 meq/L; PL ([…], time 28 day): 157.8 mg/dL; RALB ([…], time 28 day): 3.1 g/dL; TBIL ([…], time 28 day): 0.012 mg/dL; TC ([…], time 28 day): 80.2 mg/dL; TG ([…], time 28 day): 145.2 mg/dL; TP ([…], time 28 day): 6.1 g/dL; gamma-GTP ([…], time 28 day): 2 IU/L
